The text below walks through data of patent US20230365673A1, “MEANS FOR REDUCING RADIO- AND CHEMOTHERAPY RESISTANCE AND ADVERSE EFFECTS” (JOHANN WOLFGANG GOETHE-UNIVERSITÄT FRANKFURT AM MAIN, priority 2020, published 2023).

This assay has as its system APTKA orthotopic tumours. The assay is described as follows: Orthotopic APTKA organoid rectal cancer model with local fractionated radiotherapy (5×2 Gy). The assay is classed as in vivo, C57BL/6 mice. The text has this:
(A and B) Schematic representation of the orthotopic transplantation of APTKA & APTK mouse organoids into C57BL/6 mice followed by local fractionated radiotherapy (5×2 Gy) of established tumours and end point colonoscopy 21 days after the last irradiation. (C) Heat map analysis of RNA sequencing data of APTKA (n=4) and APTK (n=5) orthotopic tumours. (D) GSEA of CAF signature using RNA sequencing data of APTKA and APTK orthotopic tumours. Significant NES≤−1; FDR q-value<0.05. (E) H&E stained sections of APTK and APTKA untreated and irradiated orthotopic tumours 21 days after last irradiation. Scale bars=500 μm. (F and G) Overall tumour (mm3) and invasive area (%) of untreated (n=5) and irradiated (n=6) APTK orthotopic tumours. Data are mean±SD. *** p<0.001 and **** p<0.0001 by t-test. (H and I) Overall tumour (mm3) and invasive area (%) of untreated (n=5) and irradiated (n=5) APTKA orthotopic tumours. ** p<0.01 by t-test. Data are mean±SD. (J) Frequency of mice with liver metastasis in untreated or irradiated APTKA orthotopic tumours (n=5 mice per group). (K) H&E staining of untreated and irradiated APTKA orthotopic tumours. Scale bars=300 μm. Representative images of αSMA (Green), Vimentin (Blue) and Collagen (Yellow) multiplex immunofluorescence of untreated and irradiated APTKA tumours. Scale bars=400 μm. Sirius red staining of APTKA orthotopic tumours upon radiotherapy. Scale bars=300 μm. (L) Percent of αSMA, Vim and Col1 triple positive cells in untreated (n=9) and irradiated (n=10) APTKA tumours. Data are mean±SD. ** p<0.01 by t-test. (M) Sirius red pixel positivity in untreated (n=7) and irradiated (n=6) APTKA tumours. Data are mean±SD. * p<0.05 by t-test. (N-P) Ex vivo irradiation (5×2Gy) of APTKA and APTK organoids: (N) relative fluorescent units of untreated and irradiated organoids, 6 h post last dose, using resazurin cell viability kit (n=4 independent wells per condition); (O) quantification of the number of fully grown untreated and irradiated organoids 4 days' post first reseeding (n=7 to 9 independent wells per condition); (P) subcutaneous tumour growth in C57BL/6 mice transplanted with untreated or irradiated organoids. Data are mean±SD. N=6 mice per group; p<0.05 by one-way ANOVA followed by Tukey's multiple comparisons test. Representative results from one experiment which has been independently repeated least 3 times.
(A) Schematic representation of the orthotopic transplantation of APTKA mouse organoids into C57BL/6 mice followed by 5×2 Gy radiotherapy of established tumours untreated or treated daily with anakinra (500 μg/day) for 21 days. (B and C) Overall tumour size (mm3) and % invasive area of 5×2Gy radiated APTKA orthotopic tumours 21 days after last irradiation without (n=5) or with (n=4) anakinra treatment (500 μg/day). Data are mean±SD; p<0.05 by t-test. (D) Frequency of mice with liver metastasis upon irradiation of APTKA orthotopic tumours without (n=5) or with (n=4) anakinra treatment (500 μg/day). (E and F) Sirius red staining of untreated (n=3) or anakinra treated (n=4) 5×2 Gy irradiated APTKA tumours. Scale bars=200 μm. Data are mean±SD. *** p<0.001 by t-test. (G, H) αSMA immunofluorescent staining and its quantification of irradiated APTKA orthotopic tumours without (n=5) or with (n=4) anakinra treatment (500 μg/day). Scale bars=200 μm. Data are mean±SD; p<0.05 by t-test. (I) Schematic representation of IL-1α overexpression in APTK organoids by CRISPRa/Cas9. (J) ELISA of IL-1α protein levels in conditioned media from APTK sgctrl and APTK sgIL-1α organoids (n=4 independent wells per group). Data are mean±SD. **** p<0.0001 by t-test. (K) Relative RNA expression of inflammatory genes in fibroblasts treated with conditioned media from APTK sgctrl and APTK sgIL-1α organoids for 24 h (n=5 independent wells per condition). Data are mean±SD. **** p<0.0001 by t-test. Representative results from one experiment which has been independently repeated 2 times. […]

Setting [1] is: anakinra 500 μg/day plus 5×2 Gy.
Setting [2] is: anakinra 500 μg/day plus 5×2 Gy, 21 days after last irradiation.

As for “anakinra: Kineret®, an interleukin-1 receptor antagonist”, the APTKA tumour growth entry (anakinra 500 μg/day alone, no irradiation, data not shown) is recorded as “did not affect APTKA tumour growth significantly”. Under setting [1], the “metastasis formation (liver)” value was “blocked metastasis formation”, the “number of αSMA+ cells” value was “decreased number of αSMA+cells” and the sirius red staining result is given as “significant decrease in sirius red staining”. Further, under setting [2], the “invasion (% invasive area)” value is “marked reduction in tumour size and invasion”; the tumour size entry is reported as “marked reduction in tumour size”.
